In patent US8623861B2, “Method of treating demyelination diseases” (priority 2006, dated 2014):

Assays:
[1] = He et al., 2006; Martin et al., 2005; cited from earlier work
BDNF = conditions: Xu et al., 2002; Luo et al., 2004; cited from earlier work
rats = conditions: He et al., 2005; cited from earlier work
C57BL/6 mice [2] = tested on: C57BL/6 mice
Description: (§1) To test whether quetiapine can protect mouse brain from cuprizone-induced demyelination, 8-week old mice were fed a diet of milled LabDiet® rodent chow (PMI nutrition international LLC, Brentwood, Mo., USA) containing 0.2% cuprizone for 5 weeks (w/w) (Sigma-Aldrich, St. Louis, Mo., USA) as previously described (Morell et al., 1998). […] The study included the following 4 groups (6-8 animals/group): group 1: control, fed with regular chow (con); group 2: pre-administrated with quetiapine (10 mg/kg/day in drinking water) for 1 week, then followed by 5 weeks of quetiapine administration with normal diet (que); group 3: fed for 5 weeks on a cuprizone-containing diet (cup) with regular tap water for drinking; group 4: pre-administrated with quetiapine (10 mg/kg/day in drinking water) for 1 week, then followed by 5 weeks of quetiapine treatment with cuprizone administration (cup+que).
(§2) To study the effect of quetiapine on the remyelination process, an additional two groups (6-8 animals/group) of mice were treated with 0.2% cuprizone in milled chow for 6 weeks, and then returned to a cuprizone-free diet (Matsushima and Morell, 2001). Upon resumption of the cuprizone-free diet, mice were fed with either vehicle (water) or quetiapine (10 mg/kg/day in water, que) for 2 weeks.
Immediately after the locomotor activity test, spatial working memory was assessed by recording spontaneous alternation behavior in a Y-maze comprised of three 30-cm compartments marked as A, B, and C arms. Spontaneous alternation behavior is based on the natural tendency of rodents to explore a novel environment. In a Y-maze, mice tend to explore the maze by systematically entering each arm. For efficient alternation, mice are required to know which arms have already been visited. Therefore, alternation behavior can be regarded as a measure involving spatial working memory. […] Each mouse was placed at the end of one arm and allowed to move freely through the maze during an 8-min period. The total number and series of arm entries were recorded visually. The number of overlapping entrance sequences (e.g., ABC, BCA) was defined as the number of alternations. The effect was calculated as the percentage of alternation according to the following formula: Percent alternation=(number of alternations)/(total number of arm entries-2)×100 (Wall et al., 2002). Total entries were scored as an index of ambulatory activity in the Y-maze, and mice showing scores below six entries would be excluded.

[3] = tested on: neural progenitor cell cultures; conditions: in vitro
C57BL/6 mice [4] = tested on: C57BL/6 mice; remark: listed apart in the source
Description: as §1, §2
At the end of their treatment period, mice were anaesthetized with pentobarbital sodium at 50 mg/kg and perfused intracardially with 0.01 M PBS followed by 4% paraformaldehyde in PBS, and the brains were post-fixated overnight in 4% paraformaldehyde. Brain tissues were then rinsed 3 times with 0.01 M PBS and cryoprotected in 30% sucrose at 4° C. for one day and frozen at −80° C. for immunostaining. Serial coronal sections were dissected between levels 1 to −1 mm bregma, as defined in the mouse brain atlas of Franklin and Paxinos (Franklin and Paxinos, 1997). Demyelination was evaluated in frozen sections (30 μm) of the corpus callosum using Luxol fast blue with periodic acid-Schiff reaction. Floating frozen sections (30 μm) were incubated with 0.3% of H2O2 in 0.01 M PBS for 30 min at room temperature (RT) for quenching endogenous peroxidase activity, then blocked with 10% goat serum/PBS or 10% rabbit serum (for MBP staining) for 1 hour at RT, and then incubated overnight with the primary antibody(s) diluted in the blocking solution. After rinsing, the sections were incubated with the appropriate biotin-conjugated secondary antibody (1:1000; Vector Laboratories, Burlingame, Calif.) for 1 hour at RT. Sections were then developed with the avidin biotin complex kit (Vector Laboratories, Burlingame, Calif.) and the antibodies were visualized with DAB chromogen (Sigma-Aldrich, St. Louis, Mo.).
A goat polyclonal antibody directed against MBP (1:250; Santa Cruz Biotechnology, CA) was used to detect myelin. A rabbit anti-pi isoform of glutathione S-transferase (GST-pi, 1:500; Stressgen, Victoria, BC, Canada) was used as a marker for mature oligodendrocytes (Mason et al., 2004); Ness et al., 2005). The rabbit polyclonal NG2 antibody (1:200; Chemicon, Temecula, Calif.) was used as a marker for oligodendrocyte progenitors (Nishiyama et al., 1996).
For GST-pi and NG2 quantification, three digital pictures from the coronal section from each animal (including the middle line and the two edges of the corpus callosum in each section) were examined. Cell counts are expressed as the mean number of positive cells counted in three coronal sections from two different areas, 500 μm apart, between 1 to −1 mm bregma, following the mouse brain atlas of Franklin and Paxinos (Franklin and Paxinos, 1997). Results are expressed as the average of at least 6 mice per group. For MBP staining analysis, three digital pictures from the coronal section (including cerebral cortex) of each animal were examined, at least 6 animals of each group.

C57BL/6 mice [5] = conditions: all groups (con, que, cup, cup+que); data not shown
Description: as §1, §2

PC 12 cell = conditions: serum withdrawal or addition of hydrogen peroxide, β-amyloid peptide or MPP+; cited from earlier work
[6] = 2 weeks of recovery from cuprizone, quetiapine 10 mg/kg/day in water vs. vehicle (water)
[7] = 0.2% cuprizone 5 weeks with quetiapine co-administration vs. cuprizone alone
[8] = quetiapine alone with normal diet vs. control

Structure (SMILES)	memory deficits induced by phencyclidine and kainic acid [1]	expression of BDNF in rat hippocampus after immobilization stress (BDNF)	short- and long-term behavioral consequences of chronic dl-amphetamine (rats)	total number of arm entries in Y-maze (C57BL/6 mice [2]; 0.2% cuprizone 5 weeks, co-administration of quetiapine 10 mg/kg/day p.o.)	impairment of spontaneous alternation behavior in the Y-maze (C57BL/6 mice [2]; 0.2% cuprizone 5 weeks, co-administration of quetiapine 10 mg/kg/day p.o., ++p<0.01 vs. cuprizone)	memory impairment in Y-maze during remyelination (C57BL/6 mice [2]; [6])	total arm entries in the Y-maze during remyelination (C57BL/6 mice [2]; [6])	proliferation and differentiation of oligodendrocytes [3]	loss of GST-pi+ mature oligodendrocytes in the corpus callosum (C57BL/6 mice [4]; 0.2% cuprizone 5 weeks with quetiapine co-administration)	demyelination in LFB-PAS staining (C57BL/6 mice [4]; [7])	number of NG2+ cells within the demyelinated areas (C57BL/6 mice [4]; [7])	reduction of demyelination in MBP staining (C57BL/6 mice [4]; [7])	remyelination in demyelinated lesions (MBP and LFB-PAS) (C57BL/6 mice [4]; 2-week recovery from cuprizone, quetiapine vs. vehicle (water))	NG2+ cells after recovery (C57BL/6 mice [4]; 2 weeks recovery from cuprizone, quetiapine vs. water)	GST-pi+ mature oligodendrocytes during remyelination (C57BL/6 mice [4]; 2 weeks recovery from demyelination, quetiapine vs. water, +p<0.05 vs. water)	NG2+ cells, quetiapine alone (C57BL/6 mice [4]; quetiapine alone with normal diet)	GST-pi+ cells, quetiapine alone (C57BL/6 mice [4]; [8])	myelination (MBP staining), quetiapine alone (C57BL/6 mice [4]; [8])	locomotor activity (C57BL/6 mice [5])	PC 12 cell death (PC 12 cell)
OCCOCCN1CCN(C2=Nc3ccccc3Sc3ccccc32)CC1 [quetiapine]	could reverse memory deficits	attenuate the immobilization stress-induced decrease in the expression of BDNF	modulate the short- and long-term behavioral consequences	decreased the rise of the total number of arm entries induced by cuprizone	significantly attenuated the impairment of spontaneous alternation behavior	did not appear to improve memory impairment	did not appear to improve memory impairment or alter the total arm entries	promoted the proliferation and differentiation of oligodendrocytes	did not reverse the loss of mature oligodendrocytes	showed the same trend as MBP staining	dramatically decreased the number of NG2+ cells	35%	no difference between the vehicle (water) and quetiapine treatment on remyelination	had little effect on this change	dramatically increased	Few NG2+ cells were observed	had no difference	show no difference on myelination	no significant difference among groups	reduce the PC 12 cell death
Cc1nc2n(c(=O)c1CCN1CCC(c3noc4cc(F)ccc34)CC1)CCCC2 [risperidone]	–	–	–	–	–	–	–	–	–	–	–	–	–	–	–	–	–	–	–	reduce the PC 12 cell death
